Broadly, the IC50 is the midpoint of a concentration-inhibition curve.

The experiment concerns the target T1, Human HPK1, catalytic domain (Homo sapiens, UniProt Q92918).
T1 construct: purchased Carna
T1 sequence (Q92918 1-346): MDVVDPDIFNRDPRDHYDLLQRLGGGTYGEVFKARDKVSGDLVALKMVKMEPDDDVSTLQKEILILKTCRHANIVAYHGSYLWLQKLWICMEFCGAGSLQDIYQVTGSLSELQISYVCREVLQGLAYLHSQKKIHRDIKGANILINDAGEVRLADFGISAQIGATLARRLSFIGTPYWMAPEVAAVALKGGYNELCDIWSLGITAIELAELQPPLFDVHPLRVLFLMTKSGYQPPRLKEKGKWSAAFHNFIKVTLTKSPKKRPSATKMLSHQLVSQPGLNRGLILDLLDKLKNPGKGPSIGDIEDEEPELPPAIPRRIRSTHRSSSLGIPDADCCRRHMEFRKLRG
The experiment in a line: HPK1-SLP76 TR-FRET assay. The experiment is classed as biochemical. Conditions: 75 pM HPK1, 10 uM ATP, 10 nM SLP76, 30 min compound pre-incubation. Background: Time-resolved FRET reads energy transfer from a long-lived donor to a nearby acceptor.

The compound `COc1cc2c(cc1Nc1ncc(C(N)=O)c(Nc3ccccc3C#N)n1)CN(C)CC2` [Example 7-49, 4-[(2-cyanophenyl)amino]-2-[(6-methoxy-2-methyl-1,2,3,4-tetrahydroisoquinolin-7-yl)amino]pyrimidine-5-carboxamide] had a half-inhibitory concentration (IC50) of 0.34 nM.
In turn, `CN1CCc2cc(F)c(Nc3ncc(C(N)=O)c(Nc4c(F)cccc4C(F)(F)F)n3)cc2C1` [Example 4-29, 2-[(6-fluoro-2-methyl-1,2,3,4-tetrahydroisoquinolin-7-yl)amino]-4-{[2-fluoro-6-(trifluoromethyl)phenyl]amino} pyrimidine-5-carboxamide] gave a concentration for half-maximal inhibition (IC50) of 0.2 nM.
To `CCc1ccccc1Nc1nc(Nc2cc3c(cc2OC)CCN(C)C3)ncc1C(N)=O` [Example 4-27] belongs 0.08 nM; to `COc1cc2c(cc1Nc1ncc(C(N)=O)c(NCc3ccccc3C(F)(F)F)n1)CN(C)CC2` [Example 26-21, 2-[(6-methoxy-2-methyl-1,2,3,4-tetrahydroisoquinolin-7-yl)amino]-4-({[2-(trifluoromethyl)phenyl]methyl}amino)pyrimidine-5-carboxamide], 0.22 nM.
`NC(=O)c1cnc(Nc2ccccc2)nc1Nc1ccccc1Br` [Example 7-105, 4-[(2-bromophenyl)amino]-2-(phenylamino)pyrimidine-5-carboxamide]: half-maximal inhibition (IC50) was put at 345 nM.
To `COc1cc2c(cc1Nc1ncc(C(N)=O)c(Nc3c(F)cccc3F)n1)CNCC2` [Example 9-11, 4-(2,6-difluoroanilino)-2-[(6-methoxy-1,2,3,4-tetrahydroisoquinolin-7-yl)amino]pyrimidine-5-carboxamide] belongs 0.79 nM; to `COc1cc2c(cc1Nc1ncc(C(N)=O)c(Nc3ccccc3C(F)(F)F)n1)C(C1CC1)N(C)CC2` (single isomer, unassigned) [Example 20-1, 2-((1-cyclopropyl-6-methoxy-2-methyl-1,2,3,4-tetrahydroisoquinolin-7-yl)amino)-4-((2-(trifluoromethyl)phenyl)amino)pyrimidine-5-carboxamide], 1.62 nM.
The figure for `COc1cc2c(cc1Nc1ncc(C(N)=O)c(Nc3ccccc3CC3(C#N)CC3)n1)CN(C)CC2` [Example 13-8, 4-({2-[(1-cyanocyclopropyl)methyl]phenyl}amino)-2-[(6-methoxy-2-methyl-1,2,3,4-tetrahydroisoquinolin-7-yl)amino]pyrimidine-5-carboxamide] is 230 nM; for `COc1cc2c(cc1Nc1ncc(C(N)=O)c(Nc3cccc4c3CCN(CC(F)(F)F)C4)n1)CN(C)CC2` [Example 7-29, 2-[(6-methoxy-2-methyl-1,2,3,4-tetrahydroisoquinolin-7-yl)amino]-4-{[2-(2,2,2-trifluoroethyl)-1,2,3,4-tetrahydroisoquinolin-5-yl]amino}pyrimidine-5-carboxamide] it is 0.35 nM; for `CCn1cc(Cl)c(Nc2nc(Nc3cc4c(cc3OC)CCN(C)C4)ncc2C(N)=O)n1` [Example 7-87, 4-((4-chloro-1-ethyl-1H-pyrazol-3-yl)amino)-2-((6-methoxy-2-methyl-1,2,3,4-tetrahydroisoquinolin-7-yl)amino)pyrimidine-5-carboxamide] it is 4.78 nM.
The figure for `COc1cc2c(cc1Nc1ncc(C(N)=O)c(NC3CCN(C4CC4)C3)n1)CN(C)CC2` (stereo not drawn) [Example 26-11, 4-[(1-cyclopropylpyrrolidin-3-yl)amino]-2-[(6-methoxy-2-methyl-1,2,3,4-tetrahydroisoquinolin-7-yl)amino]pyrimidine-5-carboxamide] is 26 nM; for `COc1cc2c(cc1Nc1ncc(C(N)=O)c(NCc3c(F)ccc(F)c3F)n1)CN(C)CC2` [Example 26-45, 2-[(6-methoxy-2-methyl-1,2,3,4-tetrahydroisoquinolin-7-yl)amino]-4-{[(2,3,6-trifluorophenyl)methyl]amino}pyrimidine-5-carboxamide] it is 0.51 nM; for `COc1cc2c(cc1Nc1ncc(C(N)=O)c(Nc3cccc4c3OCC4)n1)CN(C)CC2` [Example 7-7, 4-[(2,3-dihydro-1-benzofuran-7-yl)amino]-2-[(6-methoxy-2-methyl-1,2,3,4-tetrahydroisoquinolin-7-yl)amino]pyrimidine-5-carboxamide] it is 0.03 nM.
In the case of `COc1cc2c(cc1Nc1ncc(C(N)=O)c(N[C@H](CO)c3ccccc3)n1)CN(C)CC2` [Example 26-43, 4-{[(1S)-2-hydroxy-1-phenylethyl]amino}-2-[(6-methoxy-2-methyl-1,2,3,4-tetrahydroisoquinolin-7-yl)amino]pyrimidine-5-carboxamide], the IC50 stood at 6.59 nM.
The figure for `COc1cc2c(cc1Nc1ncc(C(N)=O)c(NCc3nccs3)n1)CN(C)CC2` [Example 26-60, 2-[(6-methoxy-2-methyl-1,2,3,4-tetrahydroisoquinolin-7-yl)amino]-4-{[(1,3-thiazol-2-yl)methyl]amino}pyrimidine-5-carboxamide] is 4.89 nM; for `NC(=O)c1cnc(Nc2ccc3c(c2)CNCC3)nc1NC1CCc2cc(F)c(F)cc21` (stereo not drawn) [Example 26-53, 4-[(5,6-difluoro-2,3-dihydro-1H-inden-1-yl)amino]-2-[(1,2,3,4-tetrahydroisoquinolin-7-yl)amino]pyrimidine-5-carboxamide] it is 0.23 nM; for `COc1cc2c(cc1Nc1ncc(C(N)=O)c(Nc3cccc(CNC(=O)C4(F)CC4)c3)n1)CN(C)CC2` [Example 3-1, 4~[(3~{[(1-fluorocyclo-propane-1-carbonyl)amino]-methyl}phenyl)amino]-2-[(6-methoxy-2-methyl-1,2,3,4-tetrahydroiso-quinolin-7-yl)amino]-pyrimidine-5-carboxamide] it is 0.56 nM.
To `COc1cc2c(cc1Nc1ncc(C(N)=O)c(Nc3ccccc3-n3ccnn3)n1)CN(C)CC2` [Example 7-77, 2-[(6-methoxy-2-methyl-1,2,3,4-tetrahydroisoquinolin-7-yl)amino]-4-{[2-(1H-1,2,3-triazol-1-yl)phenyl]amino}pyrimidine-5-carboxamide] belongs 0.23 nM; to `COc1cc2c(cc1Nc1ncc(C(N)=O)c(Nc3cc(C)ccc3Cl)n1)CN(C)CC2` [Example 4-18, 4-[(2-chloro-5-methylphenyl)amino]-2-[(6-methoxy-2-methyl-1,2,3,4-tetrahydroisoquinolin-7-yl)amino]pyrimidine-5-carboxamide], 0.48 nM; to `CC(C)(C)c1cccc(Nc2ncc(C(N)=O)c(Nc3cccc4c3CCNC4=O)n2)c1` [Example 25-20, 2-[(3-tert-butylphenyl)amino]-4-[(1-oxo-1,2,3,4-tetrahydroisoquinolin-5-yl)amino]pyrimidine-5-carboxamide], 3.31 nM.
The figure for `NC(=O)c1cnc(Nc2cccc3ccccc23)nc1Nc1cccc2c1CCNC2=O` [Example 25-14, 2-[(naphthalen-1-yl)amino]-4-[(1-oxo-1,2,3,4-tetrahydroisoquinolin-5-yl)amino]pyrimidine-5-carboxamide] is 136 nM; for `Cc1cc(Nc2ncc(C(N)=O)c(Nc3cccc4c3CCNC4=O)n2)ccc1C1CC1` [Example 25-12, 2-[(4-cyclopropyl-3-methylphenyl)amino]-4-[(1-oxo-1,2,3,4-tetrahydroisoquinolin-5-yl)amino]pyrimidine-5-carboxamide] it is 0.57 nM.
Take `COc1cc2c(cc1Nc1ncc(C(N)=O)c(Nc3ccc(C)cc3Cl)n1)CN(C)CC2` [Example 4-19, 4-[(2-chloro-4-methylpheny 1)amino]-2-[(6-methoxy-2-methyl-1,2,3,4-tetrahydroisoquinolin-7-yl)amino]pyrimidine-5-carboxamide]: the IC50 worked out at 0.38 nM.
The compound `Cc1ccc(Nc2ncc(C(N)=O)c(Nc3cccc4c3CCNC4=O)n2)c(F)c1F` [Example 25-39, 2-[(2,3-difluoro-4-methylphenyl)amino]-4-[(1-oxo-1,2,3,4-tetrahydroisoquinolin-5-yl)amino]pyrimidine-5-carboxamide] registered a concentration for half-maximal inhibition (IC50) of 19.4 nM.
The figure for `C#Cc1ccccc1Nc1nc(Nc2cc3c(cc2OC)CCN(C)C3)ncc1C(N)=O` [Example 7-102, 4-[(2-ethynylphenyl)amino]-2-[(6-methoxy-2-methyl-1,2,3,4-tetrahydroisoquinolin-7-yl)amino]pyrimidine-5-carboxamide] is 0.61 nM; for `COc1cc2c(cc1Nc1ncc(C(N)=O)c(NCc3ccc(C(F)(F)F)cc3)n1)CN(C)CC2` [Example 26-61, 2-[(6-methoxy-2-methyl-1,2,3,4-tetrahydroisoquinolin-7-yl)amino]-4-({[4-(trifluoromethyl)phenyl]methyl}amino)pyrimidine-5-carboxamide] it is 146 nM.
In turn, `COc1cc2c(cc1Nc1ncc(C(N)=O)c(Nc3c(F)cccc3C#N)n1)CN(C)CC2` [Example 4-9] returned an IC50 of 5.65 nM.
`Cc1c(Cl)cccc1Nc1ncc(C(N)=O)c(Nc2cccc3c2CCNC3=O)n1` [Example 25-26, 2-[(3-chloro-2-methylphenyl)amino]-4-[(1-oxo-1,2,3,4-tetrahydroisoquinolin-5-yl)amino]pyrimidine-5-carboxamide]: the IC50 was found to be 203 nM.
To `COCCN1CCc2cc(OC)c(Nc3ncc(C(N)=O)c(Nc4ccccc4Br)n3)cc2C1` [Example 10-1, 4-[(2-bromophenyl)amino]-2-{[6-methoxy-2-(2-methoxyethyl)-1,2,3,4-tetrahydroisoquinolin-7-yl]amino}pyrimidine-5-carboxamide] belongs 0.44 nM; to `COc1cc2c(cc1Nc1ncc(C(N)=O)c(Nc3ccccc3C3CCOCC3)n1)CN(C)CC2` [Example 13-13, 2-[(6-methoxy-2-methyl-1,2,3,4-tetrahydroisoquinolin-7-yl)amino]-4-{[2-(oxan-4-yl)phenyl]amino}pyrimidine-5-carboxamide], 1.09 nM.

(Values after patent US20230416225A1, “DIAMINOPYRIMIDINE CARBOXAMIDE INHIBITORS OF HPK1” (MERCK SHARP & DOHME LLC, priority 2020, published 2023).)
